Patent US6780883B2, “Amide inhibitors of microsomal triglyceride transfer protein” (Warner-Lambert Company, priority 1998, dated 2004)

Tests used:
[1] = target: apolipoprotein(a), [apo(a)], apolipoproteinB-100, [apoB-100], coupling reaction that generates Lp(a) (Homo sapiens, UniProt P04114+P08519); experiment: LPABC screen: lipoprotein(a) biochemical coupling assay, Lp(a) content by ELISA; settings: recombinant apo(a) 17-kringle (293 cell media) + HepG2 conditioned media, 67 minutes, 37° C., 0.3 to 50 μM compound; read-out: Lp ABC IC50
Description: LPABC Screen The lipoprotein(a), [Lp(a)], biochemical coupling assay (LPABC) is used to characterize inhibitors of the apolipoprotein(a), [apo(a)], apolipoproteinB-100, [apoB-100], coupling reaction that generates Lp(a). Conditioned media from 293 cells (ATCC CRL-1573), permanently transfected with an apo(a) 17-kringle cDNA expression construct (pcDNA-AMP, In Vitrogen, Carlsbad, Calif.) using standard molecular biology techniques, was used as a source of recombinant apo(a) is diluted 1:3 with phosphate buffered saline (PBS) and 90 μL is pipetted into each well of a 96-well plate and placed into a 37° C. incubator for 10 minutes. Twenty microliters of a 0.3 to 50 μM solution of a compound of the present invention in PBS is added to the warmed plate. Ninety microliters of HepG2 (ATCC HB-8065) cell conditioned media diluted 1:3 with PBS is added to the apo(a)/compound mixture and mixed by pipetting up and down 5 times. The reaction is incubated for 67 minutes in a 37° C. incubator. A 100 μL aliquot of the reaction is removed and assayed for its Lp(a) content by an enzyme linked immunosorbent assay (ELISA).

[2] = test system: Lp(a) production in HepG2^K17 cells; experiment: LPA3 screen: inhibition of Lp(a) production in transfected HepG2 cells, Lp(a) in media by ELISA; assay type: cell-based; settings: Homo sapiens, 8 hours, 0.3 to 50 μM compound, Lp(a) normalized for total protein, read-out: Lp A3 IC50
Description: The LPA3 screen is used to identify compounds that inhibit Lp(a) production. This screen employs permanently transfected HepG2 cells (HepG2^K17) that are generated using an apo(a) 17-kringle cDNA expression construct (pcDNA-AMP, In Vitrogen, Carlsbad, Calif.) in accordance with methods that are well-known in molecular biology.
HepG2^K17 cells are seeded in 96-well plates at a density of 75,000 cells per well in 0.25 mL of Dulbecco's Modified Eagle Media (DMEM) containing 10% fetal bovine serum (FBS). Seeded plates are incubated overnight in a 37° C., 5% CO2/95% 02 incubator. The media is removed, replaced with (1) fresh media, or (2) fresh media plus 0.3 to 50 μM of a compound of the present invention in 20 μL of PBS, and the plates returned to the incubator for 8 hours. After the additional 8 hours of incubation, Lp(a) is assayed in the media by ELISA. Cells are digested with 0.5N NaOH overnight and assayed for total protein. Lp(a) values are normalized for total protein content.

Compound | IC50 [1] | IC50 [2]
COc1ccc(N(Cc2ccccc2-c2ccccc2)C(=O)c2ccccc2SC(C)C)cc1 [Example 127, N-Biphenyl-2-ylmethyl-2-isopropylsulfanyl-N-(4-methoxy-phenyl)-benzamide] | > 50 µM | 49.4 µM
COc1ccc(N(Cc2ccccc2-c2ccccc2)C(=O)c2ccccc2OC)cn1 [Example 91, N-Biphenyl-2-ylmethyl-2-methoxy-N-(6-methoxy-pyridin-3-yl)-benzamide] | > 50 µM | 46.5 µM
COc1ccc(N(Cc2ccccc2-c2ccccc2)C(=O)c2ccccc2[S+]([O-])C(C)C)cc1 (centres unmarked) [Example 139, N-Biphenyl-2-ylmethyl-N-(4-methoxy-phenyl)-2-(propane-2-sulfinyl)-benzamide] | > 15 µM | 3.5 µM
O=C(c1sc2ccccc2c1Cl)N(Cc1cccnc1)Cc1ccccc1-c1ccccc1 [Example 99, 3-Chloro-benzo[b]thiophene-2-carboxylic acid biphenyl-2-ylmethyl-pyridin-3-ylmethyl-amide] | > 50 µM | 24.7 µM
CCOc1ccccc1C(=O)N(Cc1cc(Br)cc(Br)c1)c1cccnc1 [Example 75, N-(3,5-Dibromo-benzyl)-2-ethoxy-N-pyridin-3-yl-benzamide] | > 50 µM | 14.9 µM
O=C(c1ccccc1[N+](=O)[O-])N(Cc1cccnc1)Cc1ccccc1-c1ccccc1 [Example 100, N-Biphenyl-2-ylmethyl-2-nitro-N-pyridin-3-ylmethyl-benzamide] | > 50 µM | 45.8 µM
COc1ccccc1N(Cc1ccc(Cl)c(Cl)c1)C(=O)c1ccccc1 [Example 50, N-(3,4-Dichloro-benzyl)-N-(2-methoxy-phenyl)-benzamide] | > 50 µM | 15 µM
COc1ccc(N(Cc2ccccc2-c2ccccc2)C(=O)c2ccc3c(c2)OCO3)cc1 [Example 105, Benzo[1,3]dioxole-5-carboxylic acid biphenyl-2-ylmethyl-(4-methoxy-phenyl)-amide] | > 50 µM | 13.4 µM
O=C(c1ccccc1[S+]([O-])c1ccccc1)N(Cc1ccccc1-c1ccccc1)c1ccc(Cl)cc1 (centres unmarked) [Example 140, 2-Benzenesulfinyl-N-biphenyl-2-ylmethyl-N-(4-chloro-phenyl)-benzamide] | > 15 µM | 24.9 µM
COc1ccc(C(=O)N(Cc2ccc(C(C)(C)C)cc2)c2ccccc2)cc1OC [Example 48, N-(4-tert-Butyl-benzyl)-3,4-dimethoxy-N-phenyl-benzamide] | > 50 µM | 30.9 µM
O=C(c1cc2ccccc2s1)N(Cc1cccnc1)Cc1ccccc1-c1ccccc1 [Example 125, Benzo[b]thiophene-2-carboxylic acid biphenyl-2-ylmethyl-pyridin-3-ylmethyl-amide] | > 50 µM | 23.9 µM
O=C(c1ccccc1Br)N(Cc1ccccc1-c1ccccc1)c1cccnc1 [Example 114, N-Biphenyl-2-ylmethyl-2-bromo-N-pyridin-3-yl-benzamide] | > 50 µM | 26.7 µM
COc1ccc(N(Cc2ccccc2-c2ccccc2)C(=O)c2ccccc2SC)cc1OC [Example 134, N-Biphenyl-2-ylmethyl-N-(3,4-dimethoxy-phenyl)-2-methylsulfanyl-benzamide] | > 50 µM | 12.9 µM
COc1ccc(N(Cc2ccccc2-c2ccccc2)C(=O)c2ccccc2SCc2ccccc2)cc1OC [Example 137, 2-Benzylsulfanyl-N-biphenyl-2-ylmethyl-N-(3,4-dimethoxy-phenyl)-benzamide] | > 50 µM | 9.8 µM
COc1cccc(CN(C(=O)c2ccc(C(C)C)cc2)c2cccnc2)c1 [Example 69, 4-Isopropyl-N-(3-methoxy-benzyl)-N-pyridin-3-yl-benzamide] | > 50 µM | 18.8 µM
CC(C)c1ccc(C(=O)N(Cc2ccc(C(C)(C)C)cc2)c2cccnc2)cc1 [Example 71, N-(4-tert-Butyl-benzyl)-4-isopropyl-N-pyridin-3-yl-benzamide] | > 50 µM | 43 µM
